Source: patent US4486594A, “Thiazolidine derivatives and production thereof” (Takeda Chemical Industries, Ltd., priority 1982, dated 1984)

Legend:
[1] = tested on: Sorbitol accumulation in lens; test: Inhibition of sorbitol accumulation in the lens of streptozotocin-diabetic rats; format: in vivo, Sprague-Dawley rats; conditions: 25 mg/kg orally, twice a day for two days; relative to the control
Method: (§1) Sprague-Dawley rats (male, 5-7 week old, five rats/group) were fasted for 18 hours. The rats were made diabetic by an intravenous injection of 70 mg/kg of streptozotocin (Produced by Cal Biochem) at the site of the tail under ether anesthesia. After the administration of streptozotocin, these rats were administered orally with 25 mg/kg of the test compounds (5% suspension of gum-arabica) for two days twice a day (at 9.00 a.m. and at 4.00 p.m.). During this period, these rats were allowed free access to CE-2 feedstuff (Produced by Clea Japan) and water while determining blood-sugar level of each animal. On the morning of the third day, these rats were decapitated and bled, then the lens and sciatic nerve were quickly excised. The respective contents of sorbitol in the lens and sciatic nerve were determined by the enzymatic assay method described by R. S. Clements et al., in Science, 166, p. 1007 (1969) applied to the extracts of these organs obtained by the method described by M. J. Peterson et al., in Metabolism, 28, 456 (1979).
(§2) The results are shown in the Table below as % inhibition relative to the control. Incidentally, no significant difference in blood-sugar level was observed between the group of test animals to which the test compounds were administered and the control group of the test animals to which no test compounds were administered.

[2] = tested on: Sorbitol accumulation in sciatic nerve; test: Inhibition of sorbitol accumulation in the sciatic nerve of streptozotocin-diabetic rats; format: in vivo, Sprague-Dawley rats; conditions: 25 mg/kg orally, twice a day for two days; relative to the control
Method: as §1, §2

[3] = target: T1, partially purified aldose reductase preparation from human placenta (Homo sapiens, UniProt P15121); test: Aldose reductase inhibitory action; format: biochemical; conditions: 10^-6 M; human placenta enzyme
T1 construct: partially purified aldose reductase preparation from human placenta; from tissue; host or cells: human placenta
Method: Aldose reductase inhibitory action was assayed in accordance with the method disclosed by S. Haymen et al. in Journal of Biological Chemistry, Vol. 240, p. 877 (1965) and that disclosed by Jin H. Kinoshita et al. in Metabolism, Vol. 28, Nr. 4, Suppl. 1, 462 (1979). The enzyme used in the assay was a partially purified aldose reductase preparation from human placenta. The results for the respective compounds were expressed as % inhibition at the concentration of 10^-6 mole and are shown in Table 1.

mice = test: Oral acute toxicity in mice; format: in vivo

Structure (SMILES) | Inhibition of Sorbitol Accumulation (%), Lens [1] | Inhibition of Sorbitol Accumulation (%), Sciatic Nerve [2] | inhibition at 1 µM [3] | oral LD50 (mice)
COc1ccc(C2SC(=O)NC2=O)cc1OC (centres unmarked) [reference compound] | 62% | -2% |  | 
Cc1ccc(C2SC(=O)NC2=O)cc1C (centres unmarked) [reference compound] | 18% | 5% |  | 
O=C1NC(=O)C(c2ccc3c(c2)CCCCC3)S1 (centres unmarked) [Example 1, 5-(6,7,8,9-tetrahydro-5H-benzocycloheptadien-2-yl)thiazolidine-2,4-dione] | 65% | 83% | 34% | 
O=C1NC(=O)C(c2ccc3c(c2)CCCC3)S1 (centres unmarked) [Example 2, 5-(5,6,7,8-tetrahydro-2-naphthyl)thiazolidine-2,4-dione] | 73% | 79% | 36% | no less than 100 mg
O=C1NC(=O)C(c2ccc3c(c2)CCC3)S1 (centres unmarked) [Example 4, 5-(5-indanyl)thiazolidine-2,4-dione] | 62% | 66% | 30% | 
